Reference: PMC7864197, “High-Content Analysis-Based Sensitivity Prediction and Novel Therapeutics Screening for c-Met-Addicted Glioblastoma” (Cancers, 2021)

Molecular target: c-Met (MET kinase) (Homo sapiens, UniProt P08581)
Assay: ADP-Glo MET kinase enzyme system (in vitro kinase assay)
Type: biochemical

Sequence of c-Met (MET kinase) (P08581 25-307): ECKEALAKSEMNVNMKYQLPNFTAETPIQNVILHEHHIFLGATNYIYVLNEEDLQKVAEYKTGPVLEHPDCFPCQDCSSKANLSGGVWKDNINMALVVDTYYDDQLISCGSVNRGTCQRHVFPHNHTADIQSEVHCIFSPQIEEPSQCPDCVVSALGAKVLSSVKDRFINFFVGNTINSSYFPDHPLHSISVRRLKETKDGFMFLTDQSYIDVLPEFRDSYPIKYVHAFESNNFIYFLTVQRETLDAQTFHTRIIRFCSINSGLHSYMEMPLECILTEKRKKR
Sequence of c-Met (MET kinase) (P08581 308-1390): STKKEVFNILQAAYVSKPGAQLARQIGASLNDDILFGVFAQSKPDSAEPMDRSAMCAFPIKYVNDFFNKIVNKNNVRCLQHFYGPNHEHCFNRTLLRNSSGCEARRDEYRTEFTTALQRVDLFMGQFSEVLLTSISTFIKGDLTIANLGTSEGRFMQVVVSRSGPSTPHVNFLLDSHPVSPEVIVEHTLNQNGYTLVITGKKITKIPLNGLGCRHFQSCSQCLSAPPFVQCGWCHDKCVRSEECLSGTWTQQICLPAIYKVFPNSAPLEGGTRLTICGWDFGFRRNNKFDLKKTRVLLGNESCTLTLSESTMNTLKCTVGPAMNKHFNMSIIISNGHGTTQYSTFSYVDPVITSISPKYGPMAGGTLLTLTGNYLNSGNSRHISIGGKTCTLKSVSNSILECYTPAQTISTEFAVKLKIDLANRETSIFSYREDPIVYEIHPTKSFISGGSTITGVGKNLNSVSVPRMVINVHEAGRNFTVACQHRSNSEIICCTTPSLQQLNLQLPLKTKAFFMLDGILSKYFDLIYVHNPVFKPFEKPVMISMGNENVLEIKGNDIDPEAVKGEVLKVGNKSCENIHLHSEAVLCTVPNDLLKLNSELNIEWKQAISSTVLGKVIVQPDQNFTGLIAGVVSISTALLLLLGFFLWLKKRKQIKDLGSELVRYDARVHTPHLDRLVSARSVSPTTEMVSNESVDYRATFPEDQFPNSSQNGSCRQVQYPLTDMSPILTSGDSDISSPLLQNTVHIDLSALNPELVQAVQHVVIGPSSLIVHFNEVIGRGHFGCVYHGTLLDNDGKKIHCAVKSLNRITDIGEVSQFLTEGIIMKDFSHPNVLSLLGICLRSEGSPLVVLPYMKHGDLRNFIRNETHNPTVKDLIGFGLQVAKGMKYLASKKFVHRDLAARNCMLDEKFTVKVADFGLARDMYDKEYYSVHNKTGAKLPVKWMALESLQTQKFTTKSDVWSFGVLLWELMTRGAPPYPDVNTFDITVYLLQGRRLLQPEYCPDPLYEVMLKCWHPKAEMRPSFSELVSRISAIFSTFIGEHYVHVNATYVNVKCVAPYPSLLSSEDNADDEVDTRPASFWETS

SMILES: CCN1CCN(Cc2ccc(Nc3ncc(F)c(-c4cc(F)c5nc(C)n(C(C)C)c5c4)n3)nc2)CC1 [Abemaciclib]
- ADP-Glo MET kinase enzyme system (in vitro kinase assay): abemaciclib was shown to inhibit kinase activity of c-Met at high concentrations
